In assay [1] the test system is breast cancer cell line MX-1. Description: MX-1 cell line proliferation assay (3-day). The format is cell-based. Conditions: Homo sapiens, MX1, MX-1 cells, Cell Titer Glo, read-out: Cellular proliferation: EC50. Here is the method:
The impact of compounds of the Examples on cancer cell proliferation was determined using the breast cancer cell line MX-1 (ATCC) in a 3-day proliferation assay. MX-1 cells were maintained in RPMI supplemented with 10% FBS at 37° C. and an atmosphere of 5% CO2. For compound testing, MX-1 cells were plated in 96-well black bottom plates at a density of 5000 cells/well in 90 μL of culture media and incubated at 37° overnight to allow cell adhesion and spreading. Compound dilution series were prepared in DMSO via a 3-fold serial dilution from 3 mM to 0.1 μM. The DMSO dilution series were then diluted 1:100 in phosphate buffered saline, and 10 μL of the resulted solution were added to the appropriate wells of the MX-1 cell plate. The final compound concentrations in the wells were 3, 1, 0.3, 0.1, 0.03, 0.01, 0.003, 0.001, 0.0003 and 0.0001 μM.
Luminescence readings from the Cell Titer Glo assay were normalized to the DMSO treated cells and analyzed using the GraphPad Prism software with sigmoidal curve fitting to obtain EC50s.
Background: In ATP-based viability assays light output follows the ATP content of the culture.

Assay [2] concerns the target T1, first (BD1: amino acids K57-E168) bromodomain of BRD4 (Homo sapiens, UniProt O60885).
T1 construct: His-tagged first (BD1: amino acids K57-E168)
Description: TR-FRET bromodomain binding assay, BRD4 BD1. Conditions: Ki calculated from IC50, probe Kd and probe concentration, read-out: TR-FRET Binding Ki: BRD4 (BDI_K57-E168). In a few lines: (§1)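 Displacement of Alexa647-labeled BET-inhibitor probe from His-tagged bromodomain, TR-FRET read-out; buffer 20 mM Na phosphate pH 6.0, 50 mM NaCl, 0.01% Triton X-100. IC50 by 4PL fit; Ki calculated from IC50, probe Kd and probe concentration.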

Assay [3] concerns the target T2, second (BD2: amino acids E352-E168) bromodomain of BRD4 (Homo sapiens, UniProt O60885).
T2 construct: protocol
Put plainly: TR-FRET bromodomain binding assay, BRD4 BD2. As to conditions: Ki calculated from IC50, probe Kd and probe concentration, read-out: TR-FRET Binding Ki: BRD4 (BDII_E352-M457). In a few lines: as §1

Where [4] appears, read: TR-FRET assay protocol (A-G, compound concentration range).
[5] abbreviates: TR-FRET assay protocol (D, E or G) per compound.

This is an account of results in patent publication US9561231B2 (AbbVie Inc., priority 2012, dated 2017).

Structures are written as SMILES. Where two headings read alike, the source gives them in different places.

Usually Ki stands for the dissociation constant of the complex between target and ligand, obtained from inhibition or displacement.

For the compound `CCS(=O)(=O)Nc1ccc(Oc2ccc(F)cc2F)c(-c2cn(C)c(=O)cc2O[C@H]2CC[C@H](N(C)C)CC2)c1` [Example 321, N-[4-(2,4-difluorophenoxy)-3-(4-{[trans-4-(dimethylamino)cyclohexyl]oxy}-1-methyl-6-oxo-1,6-dihydropyridin-3-yl)phenyl]ethanesulfonamide], the EC50 in assay [1] (72 h incubation) was 423 nM. Moreover, the Ki is 50 nM in assay [2] (setting [4]) and 9.15 nM in assay [3] (setting [4]).

In the case of `Cn1cc(-c2ccccc2Oc2ccccc2)cc(Cl)c1=O` [Example 281, 3-chloro-1-methyl-5-(2-phenoxyphenyl)pyridin-2(1H)-one], the EC50 in assay [1] (72 h incubation) amounted to 1650 nM. Besides, the results for the Ki in assay [2] (setting [4]) and in assay [3] (setting [4]) were 150 nM and 509 nM, respectively.

With `Cn1cc(-c2cc(NC(=O)c3ccc[nH]3)ccc2Oc2ccccc2)ccc1=O` [Example 251, N-[3-(1-methyl-6-oxo-1,6-dihydropyridin-3-yl)-4-phenoxyphenyl]-1H-pyrrole-2-carboxamide], the EC50 in assay [1] (72 h incubation) came to 1100 nM. In addition, the Ki in assay [2] (setting [4]) was 197 nM; in assay [3] (setting [4]) it was 260 nM.

As to `CCN(CC)Cc1ccc(-c2cc(=O)n(C)nc2-c2ccccc2Oc2ccccc2)cc1` [Example 69, 5-{4-[(diethylamino)methyl]phenyl}-2-methyl-6-(2-phenoxyphenyl)pyridazin-3(2H)-one], the EC50 in assay [1] (72 h incubation) is > 3000 nM. In addition, the Ki in assay [2] (setting [4]) was 98 nM; in assay [3] (setting [4]), 225 nM.

`Cn1nc(-c2ccccc2Oc2ccccc2)c(-c2ccnc(F)c2)cc1=O` [Example 54, 5-(2-fluoropyridin-4-yl)-2-methyl-6-(2-phenoxyphenyl)pyridazin-3(2H)-one]: the EC50 in assay [1] (72 h incubation) was 4240 nM. The Ki was 4120 nM in assay [2] (setting [4]) and 356 nM in assay [3] (setting [4]).

For the compound `Cn1nc(-c2ccccc2Oc2ccccc2)c(C2=CCN(C(=O)OC(C)(C)C)CC2)cc1=O` [Example 81, tert-butyl 4-[1-methyl-6-oxo-3-(2-phenoxyphenyl)-1,6-dihydropyridazin-4-yl]-3,6-dihydropyridine-1(2H)-carboxylate], the EC50 in assay [1] (72 h incubation) is > 3000 nM. For the same compound, the inhibitory constant (Ki) in assay [2] (setting [4]) was 1120 nM; in assay [3] (setting [4]), 733 nM.

With `CCOc1cc(=O)n(C)cc1-c1cc(NS(=O)(=O)CC)ccc1O[C@H]1CC[C@H](NC(=O)OC(C)(C)C)CC1` [Example 395, tert-butyl(trans-4-{2-(4-ethoxy-1-methyl-6-oxo-1,6-dihydropyridin-3-yl)-4-[(ethylsulfonyl)amino]phenoxy}cyclohexyl)carbamate], in assay [1] (72 hours with compound), the EC50 was 479 nM. The Ki was 105 nM in assay [2] (setting [5]) and 221 nM in assay [3] (setting [5]).

Consider `CCOc1cc(=O)n(C)cc1-c1cc(NC(=O)c2cc(Cl)ccc2Cl)ccc1Oc1ccc(F)cc1F` [Example 412, 2,5-dichloro-N-[4-(2,4-difluorophenoxy)-3-(4-ethoxy-1-methyl-6-oxo-1,6-dihydropyridin-3-yl)phenyl]benzamide], for which the EC50 in assay [1] (72 hours with compound) stood at 251 nM. Moreover, the values for the inhibition constant Ki in assay [2] (setting [5]) and in assay [3] (setting [5]) were 28.9 nM and 11.9 nM, respectively.

As for `CC(=O)NCc1ccc(Oc2ccccc2)c(-c2ccc(=O)n(C)n2)c1` [Example 16, N-[3-(1-methyl-6-oxo-1,6-dihydropyridazin-3-yl)-4-phenoxybenzyl]acetamide], the EC50 in assay [1] (72 h incubation) came out at 5900 nM. In addition, the Ki in assay [2] (setting [4]) is 1110 nM; in assay [3] (setting [4]) it was 8420 nM.

As to `CCS(=O)(=O)Nc1ccc(Oc2ccc(F)cc2F)c(-c2cn(C)c(=O)cc2C(F)(F)F)c1` [Example 268, N-{4-(2,4-difluorophenoxy)-3-[1-methyl-6-oxo-4-(trifluoromethyl)-1,6-dihydropyridin-3-yl]phenyl}ethanesulfonamide], the EC50 in assay [1] (72 h incubation) stood at 579 nM. Besides, the results for the inhibition constant Ki in assay [2] (setting [4]) and in assay [3] (setting [4]) were 483 nM and 95.1 nM, respectively.

`Cn1cc(-c2cc(NS(C)(=O)=O)ccc2Oc2cc(F)cc(F)c2)ccc1=O` [Example 242, N-[4-(3,5-difluorophenoxy)-3-(1-methyl-6-oxo-1,6-dihydropyridin-3-yl)phenyl]methanesulfonamide]: in assay [1] (72 h incubation), the EC50 came to 556 nM. The Ki in assay [2] (setting [4]) was 45 nM; in assay [3] (setting [4]), 338 nM.

`Cn1nc(-c2cc(N)ccc2Oc2ccccc2)ccc1=O` [Example 10, 6-(5-amino-2-phenoxyphenyl)-2-methylpyridazin-3(2H)-one]: the EC50 in assay [1] (72 h incubation) is 3700 nM. In addition, the values for the Ki in assay [2] (setting [4]) and in assay [3] (setting [4]) were 2440 nM and 1500 nM, respectively.

Consider `Cc1ccc(-c2cc(=O)n(C)nc2-c2cc(NS(C)(=O)=O)ccc2Oc2ccccc2)cc1` [Example 63, N-{3-[1-methyl-4-(4-methylphenyl)-6-oxo-1,6-dihydropyridazin-3-yl]-4-phenoxyphenyl}methanesulfonamide], for which the EC50 in assay [1] (72 h incubation) was 739 nM. Further, the inhibition constant (Ki) in assay [2] (setting [4]) was 85.2 nM; in assay [3] (setting [4]), 23.9 nM.

As for `COC(=O)CCc1cc(=O)n(C)nc1-c1ccccc1Oc1ccccc1` [Example 220, methyl 3-[1-methyl-6-oxo-3-(2-phenoxyphenyl)-1,6-dihydropyridazin-4-yl]propanoate], the EC50 in assay [1] (72 h incubation) was 16400 nM. The Ki in assay [2] (setting [4]) is 24300 nM; in assay [3] (setting [4]), 1910 nM.

As to `CNS(=O)(=O)Nc1ccc(Oc2ccccc2)c(-c2ccc(=O)n(C)c2)c1` [Example 230, N-methyl-N′-[3-(1-methyl-6-oxo-1,6-dihydropyridin-3-yl)-4-phenoxyphenyl]sulfuric diamide], the EC50 in assay [1] (72 h incubation) was 395 nM. The Ki in assay [2] (setting [4]) is 56 nM; in assay [3] (setting [4]), 48 nM.

On to `CNc1ccc(-c2cc(=O)n(C)nc2-c2ccccc2Oc2ccccc2)cc1` [Example 191, 2-methyl-5-[4-(methylamino)phenyl]-6-(2-phenoxyphenyl)pyridazin-3(2H)-one], for which, in assay [1] (72 h incubation), the EC50 is 1430 nM. The Ki was 324 nM in assay [2] (setting [4]) and 162 nM in assay [3] (setting [4]).

`CCOc1cc(=O)n(C)cc1-c1cc(NS(=O)(=O)CC)ccc1Oc1ccc(F)cc1` [Example 396, N-[3-(4-ethoxy-1-methyl-6-oxo-1,6-dihydropyridin-3-yl)-4-(4-fluorophenoxy)phenyl]ethanesulfonamide]: in assay [1] (72 hours with compound), the EC50 stood at 15.6 nM. Further, the Ki in assay [2] (setting [5]) is 9.54 nM; in assay [3] (setting [5]), 3.17 nM.

Turning to `Cn1cc(-c2cc(NS(C)(=O)=O)ccc2OC2CCOC2)ccc1=O` (stereo not drawn) [Example 249, N-[3-(1-methyl-6-oxo-1,6-dihydropyridin-3-yl)-4-(tetrahydrofuran-3-yloxy)phenyl]methanesulfonamide], in assay [1] (72 h incubation), the EC50 is > 3000 nM. For the same compound, the values for the Ki in assay [2] (setting [4]) and in assay [3] (setting [4]) were 86.2 nM and 701 nM, respectively.

For `Cc1cc(-c2cc(NS(C)(=O)=O)ccc2Oc2ccc(F)cc2F)c[nH]c1=O` [Example 263, N-[4-(2,4-difluorophenoxy)-3-(5-methyl-6-oxo-1,6-dihydropyridin-3-yl)phenyl]methanesulfonamide], the EC50 in assay [1] (72 h incubation) worked out at 304 nM. Moreover, the Ki in assay [2] (setting [4]) was 48.8 nM; in assay [3] (setting [4]), 121 nM.

On to `Cn1cc(-c2cc(NS(C)(=O)=O)ccc2Oc2ccccc2F)ccc1=O` [Example 239, N-[4-(2-fluorophenoxy)-3-(1-methyl-6-oxo-1,6-dihydropyridin-3-yl)phenyl]methanesulfonamide], for which, in assay [1] (72 h incubation), the EC50 came to 138 nM. Further, the Ki was 32.6 nM in assay [2] (setting [4]) and 39.8 nM in assay [3] (setting [4]).

Turning to `Cn1nc(-c2ccccc2Oc2ccccc2)c(-c2ccc(CO)cc2)cc1=O` [Example 79, 5-[4-(hydroxymethyl)phenyl]-2-methyl-6-(2-phenoxyphenyl)pyridazin-3(2H)-one], in assay [1] (72 h incubation), the EC50 worked out at 1870 nM. Also, the Ki in assay [2] (setting [4]) was 126 nM; in assay [3] (setting [4]) it was 87.5 nM.

For `Cn1cc(-c2cc(NS(C)(=O)=O)ccc2Oc2ccccc2C#N)ccc1=O` [Example 237, N-[4-(2-cyanophenoxy)-3-(1-methyl-6-oxo-1,6-dihydropyridin-3-yl)phenyl]methanesulfonamide], the EC50 in assay [1] (72 h incubation) is 1380 nM. Also, the Ki is 16.2 nM in assay [2] (setting [4]) and 227 nM in assay [3] (setting [4]).

Consider `CCS(=O)(=O)Nc1ccc(Oc2ccc(F)cc2F)c(-c2cn(C)c(=O)cc2-c2ccc(C)s2)c1` [Example 407, N-{4-(2,4-difluorophenoxy)-3-[1-methyl-4-(5-methylthiophen-2-yl)-6-oxo-1,6-dihydropyridin-3-yl]phenyl}ethanesulfonamide], for which the EC50 in assay [1] (72 hours with compound) came out at 72.3 nM. The inhibition constant Ki in assay [2] (setting [5]) is 6.92 nM; in assay [3] (setting [5]), 2.06 nM.
